Measurements reported in patent US11712055B2, “Stevia composition” (PURECIRCLE SDN. BHD., priority 2011, dated 2023).

Assays:
[1] = cited from earlier work; for times sweeter than sucrose: Tanaka 1987, Phillips 1989; for times sweeter than sucrose (sensory evaluations): Crammer and Ikan 1986
Water solubility = format: physicochemical; conditions: in water at 25° C.
[2] = Chang and Cook 1983; cited from earlier work
[3] = Kinghorn 2002; cited from earlier work

## C=C1C[C@@]23CC[C@H]4[C@@](C)(CCC[C@@]4(C)C(=O)O[C@@H]4O[C@H](CO)[C@@H](O)[C@H](O)[C@H]4O)[C@@H]2CC[C@]1(O[C@@H]1O[C@H](CO)[C@@H](O)[C@H](O)[C@H]1O[C@@H]1O[C@@H](C)[C@H](O)[C@@H](O)[C@H]1O)C3 [Dulcoside A]
[1]
  times sweeter than sucrose: 30 times

## C=C1CC23CCC4C(C)(C(=O)[O-])CCCC4(C)C2CCC1(OC1OC(CO)C(O)C(OC2OC(CO)C(O)C(O)C2O)C1OC1OC(CO)C(O)C(O)C1O)C3.[K+] (stereo not shown) [Example 5, reb B potassium salt]
Water solubility
  water solubility of obtained material: about 0.1 % (w/v)

## C=C1C[C@@]23CC[C@H]4[C@@](C)(CCC[C@@]4(C)C(=O)O[C@@H]4O[C@H](CO)[C@@H](O)[C@H](O)[C@H]4O)[C@@H]2CC[C@]1(O[C@@H]1O[C@H](CO)[C@@H](O)[C@H](O[C@@H]2O[C@H](CO)[C@@H](O)[C@H](O)[C@H]2O)[C@H]1O[C@@H]1O[C@H](CO)[C@@H](O)[C@H](O)[C@H]1O)C3 [Reb A, rebaudioside A]
[1]
  times sweeter than sucrose (sensory evaluations): 350-450 times
[2]
  stability in carbonated beverages: heat and pH stability

## C=C1C[C@@]23CC[C@H]4[C@@](C)(CCC[C@@]4(C)C(=O)O[C@@H]4O[C@H](CO)[C@@H](O)[C@H](O)[C@H]4O)[C@@H]2CC[C@]1(O[C@@H]1O[C@H](CO)[C@@H](O)[C@H](O)[C@H]1O[C@@H]1O[C@H](CO)[C@@H](O)[C@H](O)[C@H]1O)C3 [stevioside]
[1]
  times sweeter than sucrose: 110-270 times
[2]
  stability in carbonated beverages: heat and pH stability

## Rebaudioside B [reb B]
[3]
  water solubility (reported): about 0.1%
[1]
  times sweeter than sucrose (sensory evaluations): 300-350 times

## rebaudioside B [Example 3]
Water solubility
  water solubility of obtained material: about 0.1 % (w/v)

## rebaudioside C
[1]
  times sweeter than sucrose: 40-60 times
